Assay results reported in US5240929A, “2-heterocyclic-5-hydroxy-1,3-pyrimidines useful as antiinflammatory agents” (Warner-Lambert Company, priority 1992, dated 1993).

Assays:
cyclooxygenase = experiment: ARBC whole cell cyclooxygenase assay (inhibition of PGF2α formation in RBL-1 cells); assay type: cell-based, rat; conditions: RBL-1 whole cells; 50% inhibition of PGF2α formation; calcium ionophore A23187 (5 μM); RIA
Description: (§1) ARBL/ARBC WHOLE CELL 5-LIPOXYGENASE AND CYCLOOXYGENASE ASSAYS The rat basophilic leukemia cell line (RBL-1) was obtained from the American Type Culture Collection (Rockville, Md.). Radioimmunoassay (RIA) kits of LTB4 and PGF2α were obtained from Amersham (Arlington Heights, Ill.) and Seragen (Boston, Mass.), respectively. RBL-1 cells are grown in suspension culture in Eagle's minimum essential medium supplemented with 12% fetal bovine serum at 37° C. in an incubator supplied with air-5% carbon dioxide. Cells are harvested by centrifugation. They are washed with cold phosphate buffered saline pH 7.4 (PBS; NaCl, 7.1 g; NaHPO, 1.15 g; KHPO, 0.2 g; and KCl, 0.2 g/l). Cells are finally suspended in PBS containing 1.0 mM calcium at a density of […] cells/ml. Cells are incubated with and without test agent (in DMSO) (1% DMSO is without effect on arachidonic acid metabolism) for ten minutes at room temperature. Calcium ionophore A23187 (5 μM) is added and cells are incubated for seven minutes at 37° C. The reaction is stopped by chilling the tubes on ice for ten minutes. Cells are separated by centrifugation and the supernatant is stored at -20°. Aliquots (100 μL) are analyzed for LTB4 and PGF2α using radioimmunoassay kits as provided by the supplier. […]

5-lipoxygenase = target: T1, 5-lipoxygenase (Rattus norvegicus, UniProt P12527); experiment: ARBL whole cell 5-lipoxygenase assay (inhibition of LTB4 formation in RBL-1 cells); assay type: cell-based; conditions: RBL-1 whole cells; 50% inhibition of LTB4 formation; calcium ionophore A23187 (5 μM); RIA
T1 construct: host or cells: RBL-1 (rat basophilic leukemia)
T1 sequence (P12527 1-673): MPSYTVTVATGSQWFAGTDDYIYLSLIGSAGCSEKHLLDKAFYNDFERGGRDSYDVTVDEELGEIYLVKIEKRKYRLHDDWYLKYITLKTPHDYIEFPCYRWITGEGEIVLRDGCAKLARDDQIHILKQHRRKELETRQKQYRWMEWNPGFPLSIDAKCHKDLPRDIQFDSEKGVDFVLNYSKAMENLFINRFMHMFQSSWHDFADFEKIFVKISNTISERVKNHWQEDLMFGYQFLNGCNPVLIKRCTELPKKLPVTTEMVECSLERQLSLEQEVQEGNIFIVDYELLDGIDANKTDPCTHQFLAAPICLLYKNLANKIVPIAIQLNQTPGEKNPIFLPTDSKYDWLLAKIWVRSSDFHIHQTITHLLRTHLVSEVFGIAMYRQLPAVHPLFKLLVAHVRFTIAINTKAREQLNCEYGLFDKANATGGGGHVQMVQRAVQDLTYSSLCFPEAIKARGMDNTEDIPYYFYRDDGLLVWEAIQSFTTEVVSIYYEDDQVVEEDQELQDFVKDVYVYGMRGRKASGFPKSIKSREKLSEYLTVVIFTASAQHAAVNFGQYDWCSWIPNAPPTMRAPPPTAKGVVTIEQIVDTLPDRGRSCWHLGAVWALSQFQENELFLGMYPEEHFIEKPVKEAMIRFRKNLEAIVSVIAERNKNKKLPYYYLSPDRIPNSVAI
Description: as §1

`CON(C)C(=O)c1nc(C(C)(C)C)c(O)c(C(C)(C)C)n1` [Example 1, 4,6-Bis(1,1-dimethylethyl)-5-hydroxy-N-methoxy-N-methyl-2-pyrimidinecarboxamide] gave an IC50 (cyclooxygenase) of 1.35 µM and an IC50 (5-lipoxygenase) of 1.18 µM.
